Source: publication PMC7766232, “Cyclic RGD and isoDGR Integrin Ligands Containing cis-2-amino-1-cyclopentanecarboxylic (cis-β-ACPC) Scaffolds” (Molecules, 2020)
Where two headings read alike, the source gives them in different places. Starred links: 1 amine or outer side, 2 acyl side, 3 side chain; linkers in the order of their positions; H or OH if unused. Positions of bridges follow the written chain, without caps; N, C: chain ends. Non-standard residues stand in square brackets, D forms with d. Residues, ends and D or L forms follow the SMILES beside them. X1 = O=C([C@@H]1CCC[C@@H]1N[*:1])[*:2]

What was measured:
[1] = target: T1, purified αvβ3 receptor (Homo sapiens, UniProt P05106+P06756); test: Competitive binding assay to purified αvβ3 receptor (displacement of biotinylated vitronectin); conditions: for IC50: immobilized integrin αvβ3, biotinylated vitronectin 1 μg mL−1, mean ± SD of duplicate determinations; for selectivity ratio (IC50α5β1/IC50αvβ3): ratio of competitive binding IC50 values, α5β1 over αvβ3
Experimental: (§1) The cyclic peptidomimetics 8–10 were analyzed in a first instance for their competitive binding to purified αvβ3 and α5β1 receptors with respect to the biotinylated vitronectin or fibronectin, respectively. The IC50 values are collected in Table 1, where the values of Cilengitide (1a), cyclo-[RGDfV] (1b), cyclo-[DKP-RGD] (4), and cyclo-[DKP-isoDGR] (7), measured using the same procedure, are included as reference compounds for the RGD and isoDGR series. The new RGD compounds cyclo-[-Arg-Gly-Asp-(1S,2R)-β-ACPC-Val-] (8) and cyclo-[-Arg-Gly-Asp-(1R,2S)-β-ACPC-Val-] […] (10) is a micromolar binder for both integrins, much weaker than cyclo-[DKP-isoDGR] (7) in the case of αvβ3.
(§2) The inhibition assays of biotinylated vitronectin and fibronectin binding to the αvβ3 and α5β1 receptors, for compounds 8–10 were carried out as previously reported. […] Screening assays were performed by incubating the immobilized integrin αvβ3 or α5β1 with increasing concentrations (10^−12–10^−5 M/10^−11–10^−4 M) of the RGD and isoDGR ligands in the presence of the corresponding biotinylated ECM protein (1 μg mL^−1), and measuring bound protein in the presence of the competitive ligand. Each data point is the result of the average of triplicate wells and was analyzed by nonlinear regression analysis with the GraphPad Prism software. Each experiment was repeated in duplicate. IC50 values are the arithmetic mean ± the standard deviation (SD) of these duplicate determinations.

[2] = target: T2, purified α5β1 receptor (Homo sapiens, UniProt P05556+P08648); test: Competitive binding assay to purified α5β1 receptor (displacement of biotinylated fibronectin); conditions: immobilized integrin α5β1, biotinylated fibronectin 1 μg mL−1; mean ± SD of duplicate determinations
Experimental: as §1, §2

[3] = target: WM115 cells (Homo sapiens, UniProt P05106+P06756); assay type: cell-based
Experimental: WM-115 cells were washed with MEM (Minimum Essential Medium)-buffer, detached with trypsin and resuspended to a cell density of 1 × 10^5 cells/mL. WM-115 cells were then incubated with fluorescein diacetate for 30 min at 37 °C in the dark, washed with MEM medium and resuspended with MEM medium containing CaCl2 and MgCl2 (2 mM) and incubated on ice for 30 min in the dark. […] 0.00195313, 0.00097565, 0.00048828, 0.00024414). Cells and peptide were incubated for 30 min at 37° C in the dark and afterwards added to the 96-well ELISA-plates previously coated with vitronectin and incubated for 1 h at 37 °C in the dark. Unbound cells were aspirated, and bound cells were washed three times with MEM medium and fluorescence measured (λex: 485 nm, λem: 514 nm) with an InfiniteTM 200 Microplate Reader (Tecan, Männedorf, Switzerland). […] The IC50 values were determined four times per peptide in two independent assays here reported, and the final values are the arithmetic mean ± the standard deviation (SD) of the two independent assays. The reference peptide […] was tested together with the peptides.

[4] = target: T1, purified αvβ3 receptor; set-up: method as in PMID 23424096, PMID 28934103, PMID 28168158, PMID 31275795; conditions: reference compounds, measured using the same procedure; biotinylated vitronectin; mean ± SD; ref [29],[48],[49],[50]; cited from earlier work
[5] = target: T2, purified α5β1 receptor; set-up: method as in PMID 23424096, PMID 28934103, PMID 28168158, PMID 31275795; conditions: reference compounds, measured using the same procedure; biotinylated fibronectin; mean ± SD; ref [29],[48],[49],[50]; cited from earlier work
[6] = read-out: IC50 (50% inhibition of cell adhesion to vitronectin), WM115 cells, fluorescein labeled, mean ± SD of two independent assays
[7] = read-out: IC50 cell adhesion, 1° Assay, WM-115 cells, vitronectin-coated plates, first independent assay (Figure S4)
[8] = read-out: IC50 cell adhesion, 2° Assay, WM-115 cells, vitronectin-coated plates, second independent assay (Figure S5)

| Compound | IC50 [1] [µM] | selectivity ratio (IC50α5β1/IC50αvβ3) [1] | IC50 [2] [µM] | IC50 [3, 6] [µM] | IC50 [3, 7] [µM] | IC50 [3, 8] [µM] | IC50 (50% inhibition of cell adhesion to vitronectin) ([3]; WM115 cells, fluorescein labeled, mean ± SD of two independent assays) | IC50 [4] [µM] | IC50 [5] [µM] |
| --- | --- | --- | --- | --- | --- | --- | --- | --- | --- |
| CC(C)[C@@H]1NC(=O)[C@H]2CCC[C@H]2NC(=O)[C@H](CC(=O)O)NC(=O)CNC(=O)[C@H](CCCNC(=N)N)NC1=O [Compound 8, cyclo-[-Arg-Gly-Asp-(1S,2R)-β-ACPC-Val-]] | 0.0443 ± 0.004 | ~73 | 3.23 ± 1.47 | 75 ± 32.5 | 52 | 98 |  |  |  |
| CC(C)[C@@H]1NC(=O)[C@@H]2CCC[C@@H]2NC(=O)[C@H](CC(=O)O)NC(=O)CNC(=O)[C@H](CCCNC(=N)N)NC1=O [Compound 9, cyclo-[-Arg-Gly-Asp-(1R,2S)-β-ACPC-Val-]] | 0.039 ± 0.0011 | about 12 | 0.468 ± 0.114 | 124 | 117 | 132 |  |  |  |
| CC(C)[C@@H]1NC(=O)[C@@H]2CCC[C@@H]2NC(=O)[C@H](CCCNC(=N)N)NC(=O)CNC(=O)C[C@@H](C(=O)O)NC1=O [Compound 10, cyclo-[-isoAsp-Gly-Arg-(1R,2S)-β-ACPC-Val-]] (GR[X1]VD-OH; lactam N-5) | 5.36 ± 0.281 |  | 2.33 ± 0.134 |  | > 300 | > 300 | could not be measured |  |  |
| cyclo-(-DKP-isoAsp-Gly-Arg-) [Compound 7] |  |  |  |  |  |  |  | 0.0092 ± 0.0011 | 1.07 ± 0.228 |
| cyclo-[-DKP-Arg-Gly-Asp-] [Compound 4] |  |  |  |  |  |  |  | 0.0045 ± 0.0011 | 0.532 ± 0.035 |
| cyclo[Arg-Gly-Asp-NMe Val-D-Phe] [Compound 1a] |  |  |  |  |  |  |  | 0.00071 ± 6e-05 |  |
